{"source": "paper PMC6829886", "about": "“Inhibition of Non-Small Cell Lung Cancer Cells by Oxy210, an Oxysterol-Derivative that Antagonizes TGFβ and Hedgehog Signaling” (Cells, 2019)", "key": {"[1]": {"tested_on": "Hh signaling (Gli1, Ptch1 mRNA) in NIH3T3-E1 cells", "assay": "Ligand-induced Hh target gene expression (Q-RT-PCR) in NIH3T3 cells treated with CAPAN-1 conditioned medium", "type": "cell-based", "procedure": "Growth medium in confluent […] tissue culture plates of CAPAN-1 cells was replaced with 10 mL of fresh growth medium and cells incubated for a total of 7 days. Conditioned medium (CM) containing Shh and Ihh was collected and spun down to remove any detached cells and debris, aliquoted, and stored frozen at −80 °C (21).\nTotal RNA was extracted with the RNeasy Plus Mini Kit from Qiagen (Hilden, Germany) according to the manufacturer’s instructions. One microgram of RNA was reverse-transcribed using an iScript Reverse Transcription Supermix from Bio-Rad Laboratories (Hercules, CA, USA) to make single-stranded cDNA. The cDNAs were then mixed with Qi SYBR Green Supermix (Bio-Rad) for quantitative RT-PCR assay using a Bio-Rad I-cycler IQ quantitative thermocycler. All PCR samples were prepared in triplicate wells in a 96-well plate. After 40 cycles of PCR, melt curves were examined in order to ensure primer specificity. Fold changes in gene expression were calculated using the ΔΔCt method. Primers used for mouse were as follows: Oaz1 (5′-CCACTGCTTCGCCAGAGAG-3′) and (5′-CCCGGACCCAGGTTACTA-3′), Gli1 (5′- […]-3′ and 5′- GCT GATCCAGCCTAAGGTTCTC-3′), Ptch1 (5′-CCATCGGCGACAAGAACC-3′ and 5′-[…]-3′), Thbs1 (5′-[…]-3′ and 5′-CGGGGATCAGGTTGGCATT-3′), Cryab (5′-[…]-3′ and 5′-[…]-3′), Egr2 (5′-[…]-3′ and 5′-[…]-3′), CTGF (5′-GGGCCTCTTCTGCGATTTC-3′ and 5′-[…]-3′).\nStatistical analyses were performed using the StatView 5 program (SAS Institute, Cary, NC, USA). All p values were calculated using ANOVA and Fisher’s projected least significant difference (PLSD) significance test. A value of p < 0.05 was considered significant. The IC 50 dose-response curves shown in Figure 4b and Figure 7a–c were modeled using a five-parameter logistic model. This model allows for asymmetric curves and automatically estimates the mean maximum and minimum response. Based on this model, IC 50 values were estimated corresponding to the dose halfway between min and max response. Models of dose versus response and dose versus log response were also evaluated (see Supplementary Materials). The R square statistic was computed as a measure of model fit.\nFigure 4 Inhibition of ligand-induced Hedgehog and TGFβ signaling in mouse fibroblast cells. NIH3T3 cells were pretreated for 2 h with Oxy210 or various inhibitors as indicated in DMEM containing 5% FBS. […] After 72 h, RNA was extracted and analyzed by Q-RT-PCR for the expression of Hh target genes Gli1 and Ptch1 and normalized to Oaz1 expression (a,b). […] After 48 h, RNA was extracted and analyzed by Q-RT-PCR for the expression of TGFβ target genes as indicated and normalized to Oaz1 expression. […] Luciferase activity was measured and normalized to the Renilla luciferase activity. […]"}, "[2]": {"assay": "Single oral dose pharmacokinetic study in mice", "type": "in vivo", "details": "mouse, plasma, oral gavage, single dose 50 mg/kg", "procedure": "In an initial assessment of drug-like properties of Oxy210, we performed a pharmacokinetic (PK) study in mice. Oxy210, formulated in 3% DMSO + 7% Ethanol + 5% PEG400 + 85% corn oil, was administered to balb/c mice by oral gavage as a single dose of 50 mg/kg. Plasma samples were taken at 10 min, 30 min, 1 h, 2 h, 4 h, and 8h, followed by LC/MS analysis. […] Additional PK studies in mice were performed with Oxy210 in a dose escalation study with repeated once daily oral dosing (50 mg/kg, 200 mg/kg and 400 mg/kg) for 7 days.\nFigure 13 Drug-like properties of Oxy210. (a) A single dose of Oxy210 at 50 mg/kg, formulated in 3% DMSO + 7% Ethanol + 5% PEG400 + 85% corn oil, was administered to balb/c mice by oral gavage. Plasma samples were taken at 10 min, 30 min, 1h, 2h, 4h, 6h, and 8h, followed by LC/MS analysis of the plasma. (b) Evolution of Oxy210 and Oxy186 from parent compound Oxy16 and their drug-like properties."}, "[3]": {"assay": "Metabolic stability in mouse liver microsomes", "type": "in vitro ADME"}, "Liver X Receptor (LXR)": {"tested_on": "Liver X Receptor (LXR)", "assay": "LXR activity, summary of drug-like properties", "type": "cell-based"}}, "note": "Several values for one entry are separate records, joined by “and”; a condition that tells them apart may be missing. Equal entries are not always repeated.", "data": [{"smiles": "C[C@]12CC[C@H]3[C@@H](CC=C4C[C@@H](O)CC[C@@]43C)[C@@H]1CC[C@@H]2[C@](C)(O)CCc1cccnc1", "note": "[Oxy210, (3S,8S,9S,10R,13S,14S,17S)-17-((R)-2-hydroxy-4-(pyridin-3-yl)butan-2-yl)-10,13-dimethyl-2,3,4,7,8,9,10,11,12,13,14,15,16,17-tetradecahydro-1H-cyclopenta[a]phenanthren-3-ol]", "values": [{"measurement": "IC10 Estimate, dataset 1 - Fig 4b", "setting": "[1]; Gli1 mRNA, original scale Y, logistic curve model", "result": 0.33, "unit": "µM"}, {"measurement": "IC90", "setting": "[1]; Mus musculus, Gli1 mRNA, original scale Y, logistic curve model, read-out: IC90 Estimate, dataset 1 - Fig 4b", "result": 5.5, "unit": "µM"}, {"measurement": "mRNA expression of ligand-induced Hh target genes Gli1 and Ptch1", "setting": "[1]; NIH3T3-E1 cells, CAPAN-1 CM, 72 h", "result": "robustly inhibited"}, {"measurement": "IC50", "setting": "[1]; NIH3T3-E1 cells, CAPAN-1 CM, 72 h, Gli1 mRNA, five-parameter logistic model, ± SE, read-out: IC50 for inhibition of Gli1 expression", "result": "1.83 ± 0.21", "unit": "µM"}, {"measurement": "MRT", "setting": "[2]; balb/c, po, 50 mg/kg, read-out: mean residence time (MRT)", "result": 8, "unit": "h"}, {"measurement": "AUC(0-inf)", "setting": "[2]; balb/c mice", "result": 9210, "unit": "ng·h/mL"}, {"measurement": "Tmax", "setting": "[2]; balb/c mice", "result": 0.5, "unit": "h"}, {"measurement": "Cmax", "setting": "[2]; balb/c mice", "result": "1970 ng/mL and 4.7 µM"}, {"measurement": "remaining at 1 h", "setting": "[3]; read-out: MLM, % Remaining after 60 min", "result": 61, "unit": "%"}, {"measurement": "half-life", "setting": "[3]; read-out: MLM, Half-Life", "result": 1.4, "unit": "h"}, {"measurement": "LXR activity", "setting": "Liver X Receptor (LXR)", "result": "devoid of undesirable Liver X Receptor (LXR) activity"}]}]}
